Results taken from ChEMBL document CHEMBL5518182, “Discovery and development of BI 1265162, an ENaC inhibitor for the treatment of cystic fibrosis” (Eur J Med Chem, 2024).
Active and inactive are the calls of the source. The rule behind the calls is not given here.

How the values were obtained:
[1] = Inhibition of ENaC in mouse M1 cells upto 10 uM by chamber assay; format: cell-based; details: m1 cell
[2] = Permeability across basal to apical side in human Calu-3 cells at 0.1 to 300 uM measured upto 2 hrs by HPLC-MS/MS analysis; format: ADME, cell-based; details: dose 0.1-300 µM, read-out: permeability
[3] = tested on: Rattus norvegicus; experiment: Acute effect on Han Wistar rat model of lung fluid absorption administered intratracheally measured after 3 hrs; format: functional; details: route it(Intratracheal)
[4] = tested on: M1 cell; experiment: Inhibition of ENaC-mediated water resorption in mouse M1 cells at 3 uM by radiometric dilution assay relative to control; format: cell-based
[5] = organism: Rattus norvegicus; experiment: Upregulation of serum potassium level in Han Wistar rat; format: functional, organism-based
[6] = tested on: Rattus norvegicus; experiment: Effect on Han Wistar rat model of lung fluid absorption at ED70 administered intratracheally measured after 20 hrs; format: functional; details: route it(Intratracheal)
[7] = tested on: Rattus norvegicus; experiment: Upregulation of serum aldosterone level in Han Wistar rat model of lung fluid absorption at 3 ug/kg, IT(Intratracheal) measured after 3 hrs relative to control; format: functional; details: dose 3 µg/kg
[8] = target: Acetylcholinesterase (Homo sapiens) (UniProt P22303); experiment: Inhibition of AChE (unknown origin) at 10 uM relative to control
[9] = tested on: Lung; experiment: Inhibition of lung water resorption in Wistar rat at 30 ug/kg, IT(Intratracheal) incubated for 3 hrs relative to control; format: functional
[10] = tested on: Lung; experiment: Inhibition of lung water resorption in Wistar rat at 3 ug/kg, IT(Intratracheal) incubated for 3 hrs relative to control; format: functional
[11] = tested on: Lung; experiment: Inhibition of lung water resorption in Wistar rat at 0.3 ug/kg, IT(Intratracheal) incubated for 3 hrs relative to control; format: functional
[12] = Solubility of compound at pH 5; format: physicochemical; details: buffer

Sequence of Acetylcholinesterase (Homo sapiens) (P22303 whole entry): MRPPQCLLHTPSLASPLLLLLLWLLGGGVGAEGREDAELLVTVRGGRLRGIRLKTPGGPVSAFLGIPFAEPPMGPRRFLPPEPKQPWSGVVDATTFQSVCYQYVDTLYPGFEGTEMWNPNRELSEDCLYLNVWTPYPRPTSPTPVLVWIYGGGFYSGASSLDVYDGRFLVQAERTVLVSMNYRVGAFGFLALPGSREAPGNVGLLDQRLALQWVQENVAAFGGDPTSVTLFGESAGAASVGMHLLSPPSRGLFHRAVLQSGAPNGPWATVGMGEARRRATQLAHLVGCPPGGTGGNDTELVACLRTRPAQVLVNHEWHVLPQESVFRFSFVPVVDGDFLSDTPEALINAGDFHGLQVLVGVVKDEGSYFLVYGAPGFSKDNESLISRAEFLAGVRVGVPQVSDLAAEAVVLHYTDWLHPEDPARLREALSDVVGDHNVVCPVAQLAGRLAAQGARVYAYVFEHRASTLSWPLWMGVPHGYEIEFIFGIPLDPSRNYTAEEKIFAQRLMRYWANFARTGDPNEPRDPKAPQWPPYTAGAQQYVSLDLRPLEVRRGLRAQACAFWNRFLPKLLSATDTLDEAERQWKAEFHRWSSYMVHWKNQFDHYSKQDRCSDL

SMILES | IC50 [1] [nM] | Papp B→A at 2 h, up to 300 µM [2] [×10⁻⁶ cm/s] | inhibition [4] [%] | solubility [12] [%] | further results
CCn1c(CNC(=O)c2cc(Cl)ccc2N)[n+](CC)c2ccccc21 | 19 |  |  |  | 
CCn1c(CNC(=O)c2nc(Cl)cnc2N)[n+](CC)c2cc(C(=O)O)ccc21 | 29 | 0.17 |  |  | 
CC[n+]1c(CNC(=O)c2nc(Cl)c(N)nc2N)n(CCOCCOCCO)c2ccc(OC)cc21 | 0.5 |  |  |  | 
Cn1c(CNC(=O)c2nc(Cl)cnc2N)[n+](C)c2ccccc21 | 81 |  |  |  | 
CCn1c(CNC(=O)c2nc(Cl)cnc2N)[n+](CC)c2cc(C(=O)OC)ccc21 | 3 |  |  |  | 
CCn1c(CNC(=O)c2nc(Cl)cnc2N)[n+](CC)c2cc(OCC(=O)NCCOCP(C)(C)=O)ccc21 | 3.4 |  | 72 |  | ED50 [3]: 0.09 µg/kg; ED70 [3]: 0.18 µg/kg; Activity [5]: inactive; Efficacy [6]: 31%; Activity [7]: <25%; inhibition [8]: 29%; inhibition in vivo at 0.03 mg/kg [9]: 30%; inhibition in vivo at 0.003 mg/kg [10]: 31%; inhibition in vivo at 0.0003 mg/kg [11]: 30%
CCn1c(CNC(=O)c2nc(Cl)cnc2N)[n+](CC)c2cc(C(=O)N3CCC(N(C)C)CC3)ccc21 | 4.2 | < 0.13 | 79 | > 2 | inhibition [8]: 11%; inhibition in vivo at 0.03 mg/kg [9]: 26%; inhibition in vivo at 0.003 mg/kg [10]: 25%; inhibition in vivo at 0.0003 mg/kg [11]: 19%
CCOP(=O)([O-])CCCOc1ccc2c(c1)[n+](CC)c(CNC(=O)c1nc(Cl)c(N)nc1N)n2CCCC#N | 19 | 0.22 | 83 | > 5 | inhibition in vivo at 0.03 mg/kg [9]: 16%; inhibition in vivo at 0.003 mg/kg [10]: 6%
CCn1c(CNC(=O)c2nc(Cl)c(N)nc2N)[n+](CCO)c2cc(OC)ccc21 | 0.5 |  |  |  | 
CC[n+]1c(CNC(=O)c2nc(Cl)c(N)nc2N)[nH]c2ccc(OC)cc21 | 26 |  |  |  | 
CCn1c(CNC(=O)c2nc(Cl)cnc2N)[n+](CC)c2ccc(C(=O)NCCCN)cc21 |  | 0.22 |  | > 2 | 
CCn1c(CNC(=O)c2nc(Cl)c(N)nc2N)[n+](CCO)c2cc(OCC(=O)N3CCN(C(C)=O)CC3)ccc21 | 3.1 | 0.31 | 92 | < 2 | 
CCn1c(CNC(=O)c2nc(Br)cnc2N)[n+](CC)c2ccccc21 | 0.7 |  |  |  | 
CCn1c(CNC(=O)c2nc(Cl)c(N)nc2N)[n+](CCCO)c2cc(OC)ccc21 | 0.3 |  |  |  | 
CCn1c(CNC(=O)c2cc(Cl)cnc2N)[n+](CC)c2ccccc21 | 50 |  |  |  | 
CC[n+]1c(CNC(=O)c2nc(Cl)cnc2N)n(CCOCCOCCO)c2ccc(OC)cc21 | 3 |  |  |  | 
CCn1c(CNC(=O)c2nc(Cl)c(N)nc2N)[n+](CC)c2cc(OCCCP(=O)([O-])OCCOC)ccc21 | 4.2 | 0.03 | 98 | > 5 | inhibition in vivo at 0.03 mg/kg [9]: 22%; inhibition in vivo at 0.003 mg/kg [10]: 12%
CCn1c(CNC(=O)c2nc(Cl)c(N)nc2N)[n+](CC)c2ccccc21 | 0.2 |  |  |  | 

SMILES | IC50 [1] [nM] | Papp B→A at 2 h, up to 300 µM [2] [×10⁻⁶ cm/s] | inhibition [4] [%] | solubility [12] [%] | further results
CCn1c(CNC(=O)c2nc(Cl)cnc2N)[n+](CC)c2cc(OCC(=O)OC)ccc21 | 0.7 | 0.25 | 65 |  | 
CC[n+]1c(CNC(=O)c2nc(Cl)c(N)nc2N)n(CC(=O)OC)c2ccc(OC)cc21 | 0.5 |  |  |  | 
CCn1c(CNC(=O)c2nccnc2N)[n+](CC)c2ccccc21 | 169 |  |  |  | 
CCn1c(CNC(=O)c2nc(Cl)c(N)nc2N)nc2cc(OC)ccc21 | 168 |  |  |  | 
CCn1c(CNC(=O)c2nc(Cl)c(NC)nc2N)[n+](CC)c2ccccc21 | 305 |  |  |  | 
Cn1c(CNC(=O)c2nc(Cl)c(N)nc2N)[n+](C)c2ccccc21 | 19 |  |  |  | 
CCn1c(CNC(=O)c2nc(Cl)cnc2N)[n+](CCO)c2cc(OCC(=O)N3CCN(C(C)=O)CC3)ccc21 | 18 | 0.7 | 76 | > 5 | inhibition [8]: 75%; inhibition in vivo at 0.003 mg/kg [10]: 75%
CCn1c(CNC(=O)c2ncc(C)nc2N)[n+](CC)c2ccccc21 | 1670 |  |  |  | 
CCn1c(CNC(=O)c2nc(Cl)c(N)nc2N)[n+](CC)c2cc(OCCCP(=O)([O-])OC[C@H]3CCCO3)ccc21 | 10 | 0.06 | 89 | > 5 | inhibition in vivo at 0.03 mg/kg [9]: 16%; inhibition in vivo at 0.003 mg/kg [10]: 14%
CCn1c(CNC(=O)c2nc(Cl)c(N)nc2N)[n+](CC)c2cc(OC)ccc21 | 0.3 |  |  |  | 
CCn1c(CNC(=O)c2nc(Cl)cnc2N)[n+](CC)c2cc(OCC(=O)O)ccc21 | 16 | 0.22 | 70 |  | 
CC[n+]1c(CNC(=O)c2nc(Cl)c(N)nc2N)n(CC(=O)O)c2ccc(OC)cc21 | 6.5 |  |  |  | 
CC[n+]1c(CNC(=O)c2nc(Cl)c(N)nc2N)n(CC2CCOCC2)c2ccc(OCC(=O)N(Cc3nc(C)ccc3O)C[C@H](C)O)cc21 | 2.5 | 0.2 | 63 | < 2 | 
CC[n+]1c(CNC(=O)c2nc(Cl)cnc2N)n(CC2CCOCC2)c2ccc(OCC(=O)N(Cc3nc(C)ccc3O)C[C@H](C)O)cc21 | 8.6 | 0.12 | 72 | > 5 | inhibition [8]: 18%; inhibition in vivo at 0.03 mg/kg [9]: 33%; inhibition in vivo at 0.003 mg/kg [10]: 17%; inhibition in vivo at 0.0003 mg/kg [11]: 8%
CCn1c(CNC(=O)c2nc(Cl)cnc2N)[n+](CC)c2cc(C(=O)N3CCC(N)CC3)ccc21 | 5 | 0.18 | 84 | > 2 | inhibition in vivo at 0.03 mg/kg [9]: 26%; inhibition in vivo at 0.003 mg/kg [10]: 13%
CCOP(=O)([O-])CCCOc1ccc2c(c1)[n+](CC)c(CNC(=O)c1nc(Cl)c(N)nc1N)n2CC1CCOCC1 | 8.3 | 0.17 | 81 | < 5 | 
CCn1c(CNC(=O)c2nc(Cl)cnc2N)[n+](CC)c2ccccc21 | 0.7 |  |  |  | 
CCn1c(CNC(=O)c2nc(Cl)cnc2N)[n+](CC)c2cc(C(=O)NCCCN)ccc21 | 3.6 |  | 83 |  | inhibition in vivo at 0.03 mg/kg [9]: 24%; inhibition in vivo at 0.003 mg/kg [10]: 25%
